# Experimental data from ChEMBL document CHEMBL3046498, “Weed control efficacy and winter wheat safety of a novel herbicide HW02” (Crop Prot, 2013).
# Activity calls are given as the source filed them. The rule behind the calls is not given here.
# Legend:
# Descurainia sophia [1] = experiment: Herbicidal activity against Descurainia sophia in Wheat cultivar lifeng 703 field assessed as decrease in plant number applied during late tillering stage of winter wheat at 525 g ai/h measured after 45 days under field trials; type: functional, organism-based
# Triticum aestivum [2] = experiment: Toxicity against Winter Triticum aestivum (wheat) cultivar Dongmai 12 assessed as plant height at 225 g ai/h applied at 3-leaf stage of crop (reference value: 72.7 cm); type: organism-based; settings: in vivo, other
# Triticum aestivum [3] = experiment: Toxicity against Winter Triticum aestivum (wheat) cultivar Dongmai 12 assessed as spike numbers at 900 g ai/h applied at 3-leaf stage of crop (reference value: 482.4/m'2); type: organism-based; settings: in vivo, other
# Triticum aestivum [4] = experiment: Toxicity against Winter Triticum aestivum (wheat) cultivar Dongmai 12 assessed as 1000-grain weight at 225 g ai/h applied at booting stage of crop (reference value: 42.6 g); type: organism-based; settings: in vivo, other
# Triticum aestivum [5] = experiment: Toxicity against Winter Triticum aestivum (wheat) cultivar Dongmai 12 assessed as 1000-grain weight at 225 g ai/h applied at late tillering stage of crop in spring (reference value: 42.6 g); type: organism-based; settings: in vivo, other
# Triticum aestivum [6] = experiment: Toxicity against Winter Triticum aestivum (wheat) cultivar Dongmai 12 assessed as spike numbers at 225 g ai/h applied at 3-leaf stage of crop (reference value: 482.4/m'2); type: organism-based; settings: in vivo, other
# Triticum aestivum [7] = experiment: Toxicity against Winter Triticum aestivum (wheat) cultivar Dongmai 12 assessed as 1000-grain weight at 900 g ai/h applied at late tillering stage of crop in spring (reference value: 42.6 g); type: organism-based; settings: in vivo, other
# Triticum aestivum [8] = experiment: Toxicity against Winter Triticum aestivum (wheat) cultivar Dongmai 12 assessed as plant height at 900 g ai/h applied at booting stage of crop (reference value: 72.7 cm); type: organism-based; settings: in vivo, other
# Triticum aestivum [9] = experiment: Toxicity against Winter Triticum aestivum (wheat) cultivar Dongmai 12 assessed as spike numbers at 900 g ai/h applied at late tillering stage of crop in spring (reference value: 482.4/m'2); type: organism-based; settings: in vivo, other
# Triticum aestivum [10] = experiment: Toxicity against Winter Triticum aestivum (wheat) cultivar Dongmai 12 assessed as plant height at 450 g ai/h applied at late tillering stage of crop in spring (reference value: 72.7 cm); type: organism-based; settings: in vivo, other
# Triticum aestivum [11] = experiment: Toxicity against Winter Triticum aestivum (wheat) cultivar Dongmai 12 assessed as 1000-grain weight at 450 g ai/h applied at 2-tillering stage of crop in winter (reference value: 42.6 g); type: organism-based; settings: in vivo, other
# Triticum aestivum [12] = experiment: Toxicity against Winter Triticum aestivum (wheat) cultivar Dongmai 12 assessed as plant height at 900 g ai/h applied at late tillering stage of crop in spring (reference value: 72.7 cm); type: organism-based; settings: in vivo, other
# Triticum aestivum [13] = experiment: Toxicity against Winter Triticum aestivum (wheat) cultivar Dongmai 12 assessed as 1000-grain weight at 225 g ai/h applied at 3-leaf stage of crop (reference value: 42.6 gms); type: organism-based; settings: in vivo, other
# Triticum aestivum [14] = experiment: Toxicity against Winter Triticum aestivum (wheat) cultivar Dongmai 12 assessed as 1000-grain weight at 450 g ai/h applied at late tillering stage of crop in spring (reference value: 42.6 g); type: organism-based; settings: in vivo, other
# Triticum aestivum [15] = experiment: Toxicity against Winter Triticum aestivum (wheat) cultivar Dongmai 12 assessed as plant height at 450 g ai/h applied at 2-tillering stage of crop in winter (reference value: 72.7 cm); type: organism-based; settings: in vivo, other
# Capsella bursa-pastoris [16] = experiment: Herbicidal activity against Capsella bursa-pastoris in wheat cultivar lifeng 703 field assessed as decrease in plant number applied during late tillering stage of winter wheatat 525 g ai/h measured after 45 days under field trials; type: functional, organism-based
# Amaranthus retroflexus = experiment: Herbicidal activity against Amaranthus retroflexus assessed as decrease in biomass treated at 4-5 leaf stage measured after 14 days under greenhouse trials; type: functional
# Triticum aestivum [17] = experiment: Toxicity against Winter Triticum aestivum (wheat) cultivar Dongmai 12 assessed as spike numbers at 450 g ai/h applied at 2-tillering stage of crop in winter (reference value: 482.4/m'2); type: organism-based; settings: in vivo, other
# Triticum aestivum [18] = experiment: Toxicity against Winter Triticum aestivum (wheat) cultivar Dongmai 12 assessed as 1000-grain weight at 900 g ai/h applied at booting stage of crop (reference value: 42.6 g); type: organism-based; settings: in vivo, other
# Triticum aestivum [19] = experiment: Toxicity against Winter Triticum aestivum (wheat) cultivar Dongmai 12 assessed as spike numbers at 450 g ai/h applied at 3-leaf stage of crop (reference value: 482.4/m'2); type: organism-based; settings: in vivo, other
# Triticum aestivum [20] = experiment: Toxicity against Winter Triticum aestivum (wheat) cultivar Dongmai 12 assessed as 1000-grain weight at 450 g ai/h applied at booting stage of crop (reference value: 42.6 g); type: organism-based; settings: in vivo, other
# Triticum aestivum [21] = experiment: Toxicity against Winter Triticum aestivum (wheat) cultivar Dongmai 12 assessed as plant height at 900 g ai/h applied at 3-leaf stage of crop (reference value: 72.7 cm); type: organism-based; settings: in vivo, other
# Descurainia sophia [22] = experiment: Herbicidal activity against Descurainia sophia in Wheat cultivar Dongmai 12 field assessed as decrease in plant number applied during late tillering stage of winter wheat at 525 g ai/h measured after 45 days under field trials; type: functional, organism-based
# Triticum aestivum [23] = experiment: Toxicity against Winter Triticum aestivum (wheat) cultivar Dongmai 12 assessed as 1000-grain weight at 450 g ai/h applied at 3-leaf stage of crop (reference value: 42.6 gms); type: organism-based; settings: in vivo, other
# Descurainia sophia [24] = experiment: Herbicidal activity against Descurainia sophia in Wheat cultivar Dongmai 12 field assessed as decrease in biomass applied during late tillering stage of winter wheat at 525 g ai/h measured after 45 days under field trials; type: functional, organism-based
# Triticum aestivum [25] = experiment: Toxicity against Winter Triticum aestivum (wheat) cultivar Dongmai 12 assessed as plant height at 225 g ai/h applied at 2-tillering stage of crop in winter (reference value: 72.7 cm); type: organism-based; settings: in vivo, other
# Triticum aestivum [26] = experiment: Toxicity against Winter Triticum aestivum (wheat) cultivar Dongmai 12 assessed as spike numbers at 225 g ai/h applied at 2-tillering stage of crop in winter (reference value: 482.4/m'2); type: organism-based; settings: in vivo, other
# Triticum aestivum [27] = experiment: Toxicity against Winter Triticum aestivum (wheat) cultivar Dongmai 12 assessed as spike numbers at 225 g ai/h applied at late tillering stage of crop in spring (reference value: 482.4/m'2); type: organism-based; settings: in vivo, other
# Triticum aestivum [28] = experiment: Toxicity against Winter Triticum aestivum (wheat) cultivar lifeng 703 assessed as grain yield at 525 g ai/h; type: organism-based; settings: in vivo
# Descurainia sophia [29] = experiment: Herbicidal activity against Descurainia sophia in Wheat cultivar lifeng 703 field assessed as decrease in biomass applied during late tillering stage of winter wheat at 525 g ai/h measured after 45 days under field trials; type: functional, organism-based
# Triticum aestivum [30] = experiment: Toxicity against Winter Triticum aestivum (wheat) cultivar Dongmai 12 assessed as plant height at 225 g ai/h applied at late tillering stage of crop in spring (reference value: 72.7 cm); type: organism-based; settings: in vivo, other
# Triticum aestivum [31] = experiment: Toxicity against Winter Triticum aestivum (wheat) cultivar Dongmai 12 assessed as 1000-grain weight at 225 g ai/h applied at 2-tillering stage of crop in winter (reference value: 42.6 g); type: organism-based; settings: in vivo, other
# Triticum aestivum [32] = experiment: Toxicity against Winter Triticum aestivum (wheat) cultivar Dongmai 12 assessed as grain yield at 525 g ai/h; type: organism-based; settings: in vivo
# Triticum aestivum [33] = experiment: Toxicity against Winter Triticum aestivum (wheat) cultivar Dongmai 12 assessed as plant height at 450 g ai/h applied at 3-leaf stage of crop (reference value: 72.7 cm); type: organism-based; settings: in vivo, other
# Triticum aestivum [34] = experiment: Toxicity against Winter Triticum aestivum (wheat) cultivar lifeng 703 assessed as abnormal ear formation at 525 g ai/h; type: organism-based; settings: in vivo
# Triticum aestivum [35] = experiment: Toxicity against Winter Triticum aestivum (wheat) cultivar Dongmai 12 assessed as spike numbers at 450 g ai/h applied at late tillering stage of crop in spring (reference value: 482.4/m'2); type: organism-based; settings: in vivo, other
# Triticum aestivum [36] = experiment: Toxicity against Winter Triticum aestivum (wheat) cultivar Dongmai 12 assessed as spike numbers at 225 g ai/h applied at booting stage of crop (reference value: 482.4/m'2); type: organism-based; settings: in vivo, other
# Triticum aestivum [37] = experiment: Toxicity against Winter Triticum aestivum (wheat) cultivar Dongmai 12 assessed as 1000-grain weight at 900 g ai/h applied at 3-leaf stage of crop (reference value: 42.6 g); type: organism-based; settings: in vivo, other
# Triticum aestivum [38] = experiment: Toxicity against Winter Triticum aestivum (wheat) cultivar Dongmai 12 assessed as spike numbers at 900 g ai/h applied at 2-tillering stage of crop in winter (reference value: 482.4/m'2); type: organism-based; settings: in vivo, other
# Descurainia sophia [39] = experiment: Herbicidal activity against Descurainia sophia assessed as decrease in biomass treated at 4-5 leaf stage measured after 14 days under greenhouse trials; type: functional
# Triticum aestivum [40] = experiment: Toxicity against Winter Triticum aestivum (wheat) cultivar Dongmai 12 assessed as abnormal ear formation at 525 g ai/h; type: organism-based; settings: in vivo
# Capsella bursa-pastoris [41] = experiment: Herbicidal activity against Capsella bursa-pastoris in wheat cultivar Dongmai 12 field assessed as decrease in plant number applied during late tillering stage of winter wheatat 525 g ai/h measured after 45 days under field trials; type: functional, organism-based
# Triticum aestivum [42] = experiment: Toxicity against Winter Triticum aestivum (wheat) cultivar Dongmai 12 assessed as plant height at 900 g ai/h applied at 2-tillering stage of crop in winter (reference value: 72.7 cm); type: organism-based; settings: in vivo, other
# Triticum aestivum [43] = experiment: Toxicity against Winter Triticum aestivum (wheat) cultivar Dongmai 12 assessed as spike numbers at 900 g ai/h applied at booting stage of crop (reference value: 482.4/m'2); type: organism-based; settings: in vivo, other
# Capsella bursa-pastoris [44] = experiment: Herbicidal activity against Capsella bursa-pastoris in wheat cultivar lifeng 703 field assessed as decrease in biomass applied during late tillering stage of winter wheatat 525 g ai/h measured after 45 days under field trials; type: functional, organism-based
# Capsella bursa-pastoris [45] = experiment: Herbicidal activity against Capsella bursa-pastoris in wheat cultivar Dongmai 12 field assessed as decrease in biomass applied during late tillering stage of winter wheatat 525 g ai/h measured after 45 days under field trials; type: functional, organism-based
# Capsella bursa-pastoris [46] = experiment: Herbicidal activity against Capsella bursa-pastoris assessed as decrease in biomass treated at 4-5 leaf stage measured after 14 days under greenhouse trials; type: functional
# Myosoton aquaticum = experiment: Herbicidal activity against Myosoton aquaticum assessed as decrease in biomass treated at four to five-leaf stage measured after 14 days under greenhouse trials; type: functional
# Triticum aestivum [47] = experiment: Toxicity against Winter Triticum aestivum (wheat) cultivar Dongmai 12 assessed as plant height at 225 g ai/h applied at booting stage of crop (reference value: 72.7 cm); type: organism-based; settings: in vivo, other
# Triticum aestivum [48] = experiment: Toxicity against Winter Triticum aestivum (wheat) cultivar Dongmai 12 assessed as spike numbers at 450 g ai/h applied at booting stage of crop (reference value: 482.4/m'2); type: organism-based; settings: in vivo, other
# Triticum aestivum [49] = experiment: Toxicity against Winter Triticum aestivum (wheat) cultivar Dongmai 12 assessed as plant height at 450 g ai/h applied at booting stage of crop (reference value: 72.7 cm); type: organism-based; settings: in vivo, other
# Triticum aestivum [50] = experiment: Toxicity against Winter Triticum aestivum (wheat) cultivar Dongmai 12 assessed as 1000-grain weight at 900 g ai/h applied at 2-tillering stage of crop in winter (reference value: 42.6 g); type: organism-based; settings: in vivo, other
structure (smiles),measurement,setting,value
"O=C(O)COc1ccc(Cl)cc1Cl [2,4-DICHLOROPHENOXYACETIC ACID]",inhibition,Descurainia sophia [1],Active
same,Activity,Triticum aestivum [2],70.3 cm
same,Activity,Triticum aestivum [3],361.5 /m2
same,Activity,Triticum aestivum [4],42.5 g
same,Activity,Triticum aestivum [5],42.4 g
same,Activity,Triticum aestivum [6],406.5 /m2
same,Activity,Triticum aestivum [7],42.2 g
same,Activity,Triticum aestivum [8],70.5 cm
same,Activity,Triticum aestivum [9],480 /m2
same,Activity,Triticum aestivum [10],72 cm
same,Activity,Triticum aestivum [11],42.6 g
same,Activity,Triticum aestivum [12],72.3 cm
same,Activity,Triticum aestivum [13],40.9 g
same,Activity,Triticum aestivum [14],42.2 g
same,Activity,Triticum aestivum [15],71.9 cm
same,inhibition,Capsella bursa-pastoris [16],Active
same,ED50,Amaranthus retroflexus,74.1 gAi/ha
same,Activity,Triticum aestivum [17],453 /m2
same,Activity,Triticum aestivum [18],41.7 g
same,Activity,Triticum aestivum [19],366 /m2
same,Activity,Triticum aestivum [20],42.5 g
same,Activity,Triticum aestivum [21],61.6 cm
same,inhibition,Descurainia sophia [22],Active
same,Activity,Triticum aestivum [23],38.8 g
same,inhibition,Descurainia sophia [24],Active
same,Activity,Triticum aestivum [25],72 cm
same,Activity,Triticum aestivum [26],478.5 /m2
same,Activity,Triticum aestivum [27],484.5 /m2
same,Activity,Triticum aestivum [28],8.2 tons/ha
same,inhibition,Descurainia sophia [29],Active
same,Activity,Triticum aestivum [30],73.2 cm
same,Activity,Triticum aestivum [31],42.6 g
same,Activity,Triticum aestivum [32],5.6 tons/ha
same,Activity,Triticum aestivum [33],66 cm
same,Activity,Triticum aestivum [34],Toxic
same,Activity,Triticum aestivum [35],480 /m2
same,Activity,Triticum aestivum [36],484.5 /m2
same,Activity,Triticum aestivum [37],37.5 g
same,Activity,Triticum aestivum [38],450 /m2
same,ED50,Descurainia sophia [39],23.9 gAi/ha
same,Activity,Triticum aestivum [40],Non-toxic
same,inhibition,Capsella bursa-pastoris [41],Active
same,Activity,Triticum aestivum [42],71.5 cm
same,Activity,Triticum aestivum [43],474 /m2
same,inhibition,Capsella bursa-pastoris [44],Active
same,inhibition,Capsella bursa-pastoris [45],Active
same,ED50,Capsella bursa-pastoris [46],75.4 gAi/ha
same,ED50,Myosoton aquaticum,60.2 gAi/ha
same,Activity,Triticum aestivum [47],72 cm
same,Activity,Triticum aestivum [48],474 /m2
same,Activity,Triticum aestivum [49],71.5 cm
same,Activity,Triticum aestivum [50],42.2 g
